According to US20240251785A1, “SMALL MOLECULE ANTAGONISTS AND AGONISTS OF ARTHROPOD KININ RECEPTORS FOR PEST CONTROL” (The Texas A&M University System, priority 2021, published 2024):
Like-named read-outs stand apart in the source and are kept apart here. Where no end group is shown, it is not given here.

Tests used:
[1] = biological target: recombinant tick kinin receptor (BMLK3) (Rhipicephalus microplus, UniProt Q9NHA4); assay: Dose-response dual-addition calcium fluorescence assay on BMLK3 cells; type: cell-based; conditions: for activity type in dose-response assay, in words: Rhimi-K-1 1 μmol L^−1; for inhibition at 12 µM: read-out: Inhibitory Efficacy at 12 μM
[2] = test system: vector-only (V/O) CHO-K1 cells; assay: Dose-response dual-addition calcium fluorescence assay on vector-only cells; type: cell-based
[3] = test system: Human dermal fibroblasts (HDF) cells; assay: Cytotoxicity assay (resazurin); type: cell-based
[4] = test system: isolated hindguts from females of the mosquito Aedes aegypti; assay: Hindgut contraction inhibition assay; conditions: for effect on hindgut contraction elicited by 1728, in words: compound 100 μmol L^−1, 5 min, then 1728 10 μmol L^−1, 1 h
Method: A mosquito colony of Ae. aegypti (Diptera: Culicidae), Liverpool strain, was maintained at 26.5° C. in a 16 h:8 h, light:dark photoperiod and provided with 10% sugar water, as described previously.^31 For the experiment, 3-5-day-old females were used, and the assay was modified based on our previous protocol.^33 A group of six female mosquitoes were cold-anesthetized on a Petri dish placed on ice, where both wings were removed. Mosquitoes became active when the plate was removed from the ice. The dissection dish was filled with Ringer's solution (150 mmol L^−1 NaCl, 25 mmol L^−1 HEPES, 3.4 mmol L^−1 KCl, 7.5 mmol L^−1 NaOH, 1.8 mmol L^−1 NaHCO3. 1 mmol L^−1 MgSO4, 1.7 mmol L^−1 CaCl2 and 5 mmol L^−1 glucose, pH 7.1) at room temperature. To dissect the hindgut of each mosquito, their head and thorax were removed with forceps, and the abdomen was submerged in the Ringer solution. The hindgut, ovaries and Malpighian tubules (MTs), and midgut were taken out by pulling the last segment of the abdomen under the Ringer solution. Then, the ovaries and the majority of the midgut were removed using scissors leaving the intact hindgut and MTs. The isolated tissue was transferred with forceps, gripping on the cuticle of the last segment, into a drop of 30 μL Ringer solution in a 12-well-plate (Greiner Bio-One®, 665,102). After six mosquitoes were dissected as a group, paraffin oil (1-2 mL) was added to each well to cover the saline. The cuticle of the last abdominal segment was drawn out of the Ringer solution into the oil for better observation of the hindgut contraction. The tissues were filmed using an Olympus SZ60 camera (Olympus America Inc., Center Valley, PA, USA) mounted on a dissecting microscope.
First, the hindgut basal contraction rate was recorded by filming each tissue for 60 s. […] After 5 min of incubation at room temperature, 15 μL kinin agonist analog 1728 solution (4×in Ringer solution) was added to the Ringer solution to reach a final concentration of 10 μmol L^−1. After 1 h of incubation, the tissue was filmed again for 60 s.
The contractible hindgut of mosquito consists of a funnel-shaped pylorus located immediately after the posterior midgut, followed by a long, coiled ileum, and a bulbous colon which contains the rectal pads, and a tapering rectal tube at the posterior end.^35 To analyze each video, the hindgut contraction number was counted by observing the contraction occurring at the junction between the pyloric sphincter and the most anterior ileum. The hindgut contraction rate was expressed as the number of contractions observed over 60 s. The fold change in contraction rate was calculated as the contraction rate estimated at 1 h post treatment divided by the basal rate estimated before the treatment with the chemicals. Each treatment was repeated with 30 female mosquitoes independently. All statistical analyses were done by PRISM software (v8, GraphPad). The differences in fold-change of the contraction rates among treatments were analyzed using the nonparametric Kruskal-Wallis test, followed by the Dunn's multiple comparison test. […].

[5] = test system: R. microplus kinin receptor; assay: High-throughput dual-addition calcium fluorescence screen on BMLK3 cells; type: cell-based, Rhipicephalus microplus; conditions: compound 2 μmol L^−1, 5 min, then FFFSWGa 500 nmol L^−1
[6] = first addition, 20 concentrations 28 nM-25 μM, read-out: BMLK3 EC50
[7] = second addition Rhimi-K-1 1 μmol L^−1, read-out: BMLK3 IC50
[8] = summary of 36 validated antagonist hits, BMLK3 cells, read-out: BMLK3 EC50
[9] = summary of 36 validated antagonist hits, BMLK3 cells, read-out: BMLK3 IC50
[10] = V/O cells, second addition Rhimi-K-1 1 μmol L^−1, read-out: V/O antagonist IC50
[11] = summary of 36 validated antagonist hits, vector-only cell (V/O)
[12] = Human dermal fibroblasts cells, tested at 20 μcool L^−1
[13] = Table 5 analogs, first addition, read-out: BMLK3 EC50
[14] = Table 5 analogs, second addition Rhimi-K-1 1 μmol L^−1, read-out: BMLK3 antagonist IC50
[15] = Table 5 analogs, V/O cells, read-out: V/O antagonist IC50
[16] = virtual hit molecules, dual-addition assay, recombinant tick kinin receptor (BMLK3) cells, read-out: BMLK3 EC50
[17] = virtual hit molecules, dual-addition assay, recombinant tick kinin receptor (BMLK3) cells, read-out: BMLK3 antagonist IC50
[18] = Cricetulus griseus, CHO-K1, summary of 36 validated antagonist hits, vector-only cell (V/O)

recombinant tick kinin receptor (BMLK3), sequence (Q9NHA4 entry or part of it): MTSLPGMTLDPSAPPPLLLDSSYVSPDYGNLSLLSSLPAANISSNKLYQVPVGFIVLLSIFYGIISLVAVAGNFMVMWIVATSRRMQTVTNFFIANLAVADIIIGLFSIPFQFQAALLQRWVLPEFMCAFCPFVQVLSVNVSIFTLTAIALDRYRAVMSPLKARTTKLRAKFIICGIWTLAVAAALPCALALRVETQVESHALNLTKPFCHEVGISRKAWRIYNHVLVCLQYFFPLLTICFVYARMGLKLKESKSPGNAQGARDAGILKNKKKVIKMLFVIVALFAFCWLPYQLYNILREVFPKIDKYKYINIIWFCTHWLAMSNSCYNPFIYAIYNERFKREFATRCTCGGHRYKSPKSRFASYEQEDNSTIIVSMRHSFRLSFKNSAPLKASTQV

**Q.** `O=C1C=CC(Nc2ccc([N+](=O)[O-])cc2)C1Nc1ccc([N+](=O)[O-])cc1` (centres unmarked) [SACC-0121252] was tested. Which “Inhibitory Efficacy at 12 μM” value ([1]; 12 μM, BMLK3 cells) did it give?
**A.** The value was 42.68%.

**Q.** What about the EC50 [1, 6] of the same compound?
**A.** Its EC50 is 0.177 µM.

**Q.** And the IC50 [1, 7]?
**A.** The IC50 was over 25 µM.

**Q.** And the EC50 [1, 8]?
**A.** The EC50 was 0.177 µM.

**Q.** And the IC50 [1, 9]?
**A.** Its IC50 is over 25 µM.

**Q.** What about the EC50 ([2]; V/O cells, first addition) of the same compound?
**A.** Its EC50 is over 25 µM.

**Q.** And the IC50 [2, 10]?
**A.** The IC50 was 2.53 µM.

**Q.** And the EC50 [2, 11]?
**A.** Its EC50 is over 25 µM.

**Q.** What about the IC50 [2, 11] of the same compound?
**A.** Its IC50 is 2.53 µM.

**Q.** And the “HDF average % growth inhibition” value [3, 12]?
**A.** The value was 4.83%.

**Q.** Which results are given for `O=C1C(=Cc2ccccc2)SC(=S)N1NS(=O)(=O)c1ccccc1` [SACC-0412060]?
**A.** Inhibitory Efficacy at 12 μM ([1]; 12 μM, BMLK3 cells): 91.75%; EC50 [1, 13]: 9.57 µM; IC50 [1, 14]: 1.89 µM; EC50 [1, 8]: 9.57 µM; IC50 [1, 9]: 1.89 µM; EC50 ([2]; Table 5 analogs, V/O cells): 9.27 µM; IC50 [2, 15]: 0.538 µM; EC50 [2, 11]: 9.27 µM; IC50 [2, 11]: 0.538 µM; HDF average % growth inhibition [3, 12]: 6.873%; hindgut contraction rate, in words ([4]; compound 10 μmol L^−1, 1 h after 1728 (data not shown)): no increase in the hindgut contraction rate was observed; effect on hindgut contraction elicited by 1728, in words [4]: inhibited the increased rate of muscle contraction; effect on hindgut contraction elicited by 1728, in words ([4]; listed as SACC-0412000): significantly reduced the mobility of the hindgut

**Q.** With `Cc1ccc(C=C2SC(=S)N(NS(=O)(=O)c3ccc(C)cc3)C2=O)cc1` [SACC-0412061] as the compound, how does the “Inhibitory Efficacy at 12 μM” value ([1]; 12 μM, BMLK3 cells) read?
**A.** The value was 48.16%.

**Q.** What about the “activity type in dose-response assay, in words” value ([1]; BMLK3 cells) of the same compound?
**A.** Its value is “partial antagonists”.

**Q.** And the EC50 [1, 13]?
**A.** The EC50 was 0.978 µM.

**Q.** And the IC50 [1, 14]?
**A.** Its IC50 is 0.509 µM.

**Q.** And the EC50 [1, 8]?
**A.** The EC50 was 0.978 µM.

**Q.** What about the IC50 [1, 9] of the same compound?
**A.** The IC50 was 0.509 µM.

**Q.** And the EC50 ([2]; Table 5 analogs, V/O cells)?
**A.** Its EC50 is 5.5 µM.

**Q.** What about the IC50 [2, 15] of the same compound?
**A.** The IC50 was 2.71 µM.

**Q.** What about the EC50 [2, 11] of the same compound?
**A.** Its EC50 is 5.5 µM.

**Q.** And the IC50 [2, 11]?
**A.** Its IC50 is 2.71 µM.

**Q.** And the “HDF average % growth inhibition” value [3, 12]?
**A.** Its value is −1.013%.

**Q.** How did the “hindgut contraction rate, in words” value ([4]; 1 μmol L^−1, 1 h (data not shown)) turn out when “NPFHAWG-NH2 [aedeskinin 2, reference compound]” was run?
**A.** Its value is “increase of hindgut contraction rate”.

**Q.** `C/C(CCC(C)C)=N\N=C(/S)NCc1ccccc1` [SACC-0018618] was tested. Which “antagonist Io (%)” value [5] did it give?
**A.** Its value is 58%.

**Q.** What about the “Inhibitory Efficacy at 12 μM” value ([1]; 12 μM, BMLK3 cells) of the same compound?
**A.** Its value is 55.77%.

**Q.** And the “activity type in dose-response assay, in words” value ([1]; BMLK3 cells)?
**A.** Its value is “full agonist”.

**Q.** And the EC50 [1, 6]?
**A.** The EC50 was over 25 µM.

**Q.** What about the IC50 [1, 7] of the same compound?
**A.** Its IC50 is 4.29 µM.

**Q.** And the EC50 [1, 8]?
**A.** The EC50 was over 25 µM.

**Q.** And the IC50 [1, 9]?
**A.** Its IC50 is 4.29 µM.

**Q.** What about the EC50 ([2]; V/O cells, first addition) of the same compound?
**A.** The EC50 was over 25 µM.

**Q.** What about the IC50 [2, 10] of the same compound?
**A.** Its IC50 is over 25 µM.

**Q.** And the EC50 [2, 11]?
**A.** Its EC50 is over 25 µM.

**Q.** And the IC50 [2, 11]?
**A.** Its IC50 is over 25 µM.

**Q.** What about the “HDF average % growth inhibition” value [3, 12] of the same compound?
**A.** Its value is 7.327%.

**Q.** Which results are given for `Cc1ccc(S(=O)(=O)Nc2ccc3nc(N)sc3c2)cc1` [SACC-0034373]?
**A.** Inhibitory Efficacy at 12 μM ([1]; 12 μM, BMLK3 cells): 26.16%; EC50 [1, 8]: 1.96 µM; IC50 [1, 9]: 6.22 µM; EC50 [1, 16]: 1.96 µM; IC50 [1, 17]: 6.22 µM; EC50 [2, 11]: 2.49 µM; IC50 [2, 11]: > 25 µM; EC50 ([2]; virtual hit molecules, dual-addition assay, vector-only cell (V/O)): 2.49 µM; IC50 ([2]; virtual hit molecules, dual-addition assay, vector-only cell (V/O), read-out: V/O antagonist IC50): > 25 µM; HDF average % growth inhibition [3, 12]: −7%

**Q.** Which EC50 [1] does the source give for `C/N=c1\[nH]c2cc([N+](=O)[O-])c([N+](=O)[O-])cc2[nH]\c1=N\C` [SACC-0010666] here?
**A.** The EC50 was 0.914 µM.

**Q.** And the IC50 [1]?
**A.** The IC50 was 0.808 µM.

**Q.** What about the inhibition at 12 µM [1] of the same compound?
**A.** The inhibition at 12 µM was 4.47%.

**Q.** And the EC50 ([2]; Cricetulus griseus, CHO-K1, V/O cells, first addition)?
**A.** The EC50 was 1.35 µM.

**Q.** And the IC50 ([2]; Cricetulus griseus, CHO-K1, V/O cells, second addition Rhimi-K-1 1 μmol L^−1, read-out: V/O antagonist IC50)?
**A.** The IC50 was 14.9 µM.

**Q.** And the IC50 [2, 18]?
**A.** The IC50 was 14.9 µM.

**Q.** And the “HDF average % growth inhibition” value ([3]; human, 48 h, 20 μmol L^−1)?
**A.** Its value is −4.62%.

**Q.** How did the inhibition at 12 µM ([1]; 12 μM, BMLK3 cells) turn out when `COc1ccc(S(=O)(=O)Nc2ccc(O)c(Sc3nc4ccccc4s3)c2)cc1` [SACC-0089495] was run?
**A.** The inhibition at 12 µM was 71.3%.

**Q.** And the EC50 [1, 16]?
**A.** The EC50 was 3.04 µM.

**Q.** And the IC50 [1, 17]?
**A.** The IC50 was 6.53 µM.

**Q.** And the IC50 [2, 18]?
**A.** The IC50 was 5.99 µM.

**Q.** What about the EC50 ([2]; Cricetulus griseus, CHO-K1, virtual hit molecules, dual-addition assay, vector-only cell (V/O)) of the same compound?
**A.** Its EC50 is 9.06 µM.

**Q.** What about the IC50 ([2]; Cricetulus griseus, CHO-K1, virtual hit molecules, dual-addition assay, vector-only cell (V/O), read-out: V/O antagonist IC50) of the same compound?
**A.** The IC50 was 5.99 µM.

**Q.** What about the “HDF average % growth inhibition” value [3, 12] of the same compound?
**A.** Its value is −2.817%.
